Measured values reported in the supplement of paper PMC10307832.

Legend:
Assay in all cases: relative viability (nuclei count vs DMSO), 5 days (fraction); higher = more cells survive
[1] = compound: COc1cc2nc(N3CCCN(C)CC3)nc(NC3CCN(Cc4ccccc4)CC3)c2cc1OC + COc1cccc2cc(-c3nc([C@H]4CC[C@H](C(=O)O)CC4)n4ncnc(N)c34)[nH]c12 [OSI-027] (partner 0.5 µM)
Method in brief: (§1)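 Relative viability divides the nuclei count in treated wells by that in vehicle wells. Lung cancer cell lines were seeded in 1536-well plates, dosed by pin tool the next day, and fixed and stained after 5 days in one step with final 0.05% Triton X-100, 1% formaldehyde and 1 ug/ml Hoechst. Dosing was a single drug or a fixed anchor-drug dose plus five library-drug doses (not always all listed) in √10 steps, and values are medians of duplicate plates imaged at 4×.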

AZD6482 + Lapatinib = compound: Cc1cc([C@@H](C)Nc2ccccc2C(=O)O)c2nc(N3CCOCC3)cc(=O)n2c1 [AZD6482] + CS(=O)(=O)CCNCc1ccc(-c2ccc3ncnc(Nc4ccc(OCc5cccc(F)c5)c(Cl)c4)c3c2)o1 [Lapatinib] (partner 2 µM)
Method in brief: as §1

AZD6482 + Dasatinib = compound: Cc1cc([C@@H](C)Nc2ccccc2C(=O)O)c2nc(N3CCOCC3)cc(=O)n2c1 [AZD6482] + Cc1nc(Nc2ncc(C(=O)Nc3c(C)cccc3Cl)s2)cc(N2CCN(CCO)CC2)n1 [Dasatinib] (partner 0.075 µM)
Method in brief: as §1

[2] = compound: COc1cc2nc(N3CCCN(C)CC3)nc(NC3CCN(Cc4ccccc4)CC3)c2cc1OC + CS(=O)(=O)N1CCN(Cc2cc3nc(-c4cccc5[nH]ncc45)nc(N4CCOCC4)c3s2)CC1 [Pictilisib] (partner 1 µM)
Method in brief: as §1

Row | Cell Line | relative viability ([1]; first compound 0.2 µM) | relative viability ([1]; first compound 0.6325 µM) | relative viability ([1]; first compound 2 µM) | relative viability ([1]; first compound 6.325 µM) | relative viability (AZD6482 + Lapatinib; first compound 0.08 µM) | relative viability (AZD6482 + Lapatinib; first compound 0.253 µM) | relative viability (AZD6482 + Lapatinib; first compound 0.8 µM) | relative viability (AZD6482 + Lapatinib; first compound 2.53 µM) | relative viability (AZD6482 + Lapatinib; first compound 8 µM) | relative viability (AZD6482 + Dasatinib; first compound 0.08 µM) | relative viability (AZD6482 + Dasatinib; first compound 0.253 µM) | relative viability (AZD6482 + Dasatinib; first compound 0.8 µM) | relative viability (AZD6482 + Dasatinib; first compound 2.53 µM) | relative viability (AZD6482 + Dasatinib; first compound 8 µM) | relative viability ([2]; first compound 0.2 µM) | relative viability ([2]; first compound 0.6325 µM) | relative viability ([2]; first compound 6.325 µM) | relative viability ([2]; first compound 2 µM)
1 | NCI-H1944 | 0.428 | 0.465 | 0.307 | 0.398 | 0.85 | 0.863 | 0.926 | 0.527 | 0.564 | 0.223 | 0.191 | 0.238 | 0.172 | 0.182 | 0.342 | 0.365 | 0.336 | 
2 | NCI-H1793 | 0.241 | 0.365 | 0.225 | 0.293 | 0.559 | 0.368 | 0.565 |  | 0.321 | 0.387 | 0.34 | 0.351 | 0.249 | 0.358 | 0.317 | 0.342 | 0.372 | 0.282
3 | NCI-H520 | 0.315 | 0.269 | 0.212 | 0.234 | 0.644 | 0.397 | 0.619 |  | 0.263 | 0.154 | 0.153 | 0.138 | 0.144 | 0.166 | 0.292 | 0.329 | 0.21 | 0.332
4 | NCI-H460 | 0.669 | 0.674 | 0.565 | 0.63 | 0.869 | 0.796 | 1.17 | 0.585 | 0.758 | 0.414 | 0.404 | 0.562 | 0.241 | 0.215 | 0.306 | 0.513 | 0.332 | 0.359
5 | EKVX | 0.755 | 0.662 | 0.736 | 0.666 | 0.173 | 0.342 | 0.181 | 0.141 | 0.167 | 0.465 | 0.507 | 0.504 | 0.304 | 0.3 | 0.466 | 0.46 | 0.4 | 0.357
6 | NCI-H358 | 0.734 | 0.831 | 0.845 | 0.626 | 0.443 | 0.417 | 0.386 | 0.258 | 0.365 | 0.151 | 0.186 | 0.132 | 0.0881 | 0.153 | 0.368 | 0.422 | 0.269 | 0.348
7 | EPLC-272H | 0.358 | 0.32 | 0.316 | 0.205 | 0.812 |  | 1.01 | 0.709 | 0.673 | 0.253 | 0.291 | 0.311 | 0.172 | 0.124 | 0.314 | 0.439 | 0.305 | 0.303
8 | NCI-H1563 | 0.748 | 0.713 | 0.773 | 0.729 | 0.902 | 0.842 | 0.876 | 0.674 | 0.778 | 0.487 | 0.479 | 0.442 | 0.449 | 0.465 | 0.566 | 0.622 | 0.55 | 0.558
9 | NCI-H1395 | 0.715 | 0.731 | 0.677 | 0.419 | 0.787 | 0.741 | 0.836 | 0.511 | 0.562 | 0.348 | 0.346 | 0.357 | 0.29 | 0.369 | 0.596 | 0.589 | 0.486 | 0.647
10 | NCI-H2126 | 0.769 | 0.794 | 0.693 | 0.662 | 0.635 | 0.644 | 0.636 | 0.519 | 0.49 | 0.542 | 0.578 | 0.568 | 0.284 | 0.317 | 0.505 | 0.557 | 0.47 | 0.456
11 | LXF-289 | 0.696 | 0.761 | 0.791 | 0.768 | 0.924 | 0.913 | 0.892 | 0.821 | 0.937 | 0.188 | 0.15 | 0.193 | 0.106 | 0.123 | 0.8 | 0.778 | 0.762 | 0.804
12 | NCI-H2009 | 0.681 | 0.531 | 0.784 | 0.29 | 1.1 | 1 | 1.04 | 0.579 | 0.815 | 0.2 | 0.232 | 0.218 | 0.165 | 0.183 | 0.686 | 0.859 | 0.673 | 0.962
13 | NCI-H2405 | 0.717 | 0.677 | 0.671 | 0.66 | 0.69 |  | 1.12 | 0.627 | 0.483 | 0.161 |  | 0.232 | 0.206 | 0.191 | 0.453 | 0.383 | 0.328 | 0.584
14 | NCI-H1755 | 0.791 | 0.663 | 0.671 | 0.518 | 0.955 | 0.969 | 1.03 | 0.704 | 0.749 | 0.299 | 0.379 | 0.385 | 0.288 | 0.299 | 0.423 | 0.425 | 0.317 | 0.377
15 | HCC-78 | 0.381 | 0.33 | 0.329 | 0.377 | 0.512 | 0.683 | 1.52 | 0.255 | 0.503 | 0.298 | 0.207 | 0.254 | 0.192 | 0.199 | 0.206 | 0.212 | 0.188 | 0.207
16 | LOU-NH91 | 0.75 | 0.761 | 0.625 | 0.74 | 0.626 | 0.752 | 0.681 | 0.501 | 0.494 | 0.394 | 0.486 | 0.577 | 0.406 | 0.376 | 0.546 | 0.585 | 0.566 | 0.505
17 | NCI-H3122 | 0.935 | 0.877 | 0.992 | 0.729 | 0.965 | 0.993 | 1.03 | 0.893 | 1.11 | 0.775 | 0.828 | 0.94 | 0.361 | 0.695 | 0.589 | 0.634 | 0.478 | 0.601
18 | HCC-827 | 0.761 | 0.793 | 0.687 | 0.781 | 0.164 | 0.174 | 0.196 | 0.177 | 0.177 | 0.255 | 0.2 | 0.197 | 0.161 | 0.214 | 1.04 | 1.09 | 0.886 | 0.636
